Measurements as given in article PMC5218480 (PLoS ONE, 2017).

System: MV-4-11 cells
Experiment: Gene expression microarray analysis (Affymetrix PrimeView) and GSEA
Format: cell-based, human
Parameters: RFU PODN (11730768_x_at) / Fold change /veh PODN (11730768_x_at) / RFU LINC00158 (11744669_a_at) / Fold change /veh LINC00158 (11744669_a_at) / RFU DUSP10 (11751237_a_at) / Fold change /veh DUSP10 (11751237_a_at) / RFU ID3 (11757404_x_at) / Fold change /veh ID3 (11757404_x_at) / RFU PLEKHG5 (11737974_s_at) / Fold change /veh PLEKHG5 (11737974_s_at) / RFU LRRC4B (11730491_at) / Fold change /veh LRRC4B (11730491_at) / RFU GIMAP4 (11747438_a_at) / Fold change /veh GIMAP4 (11747438_a_at) / RFU KRT8 (11758183_x_at) / Fold change /veh KRT8 (11758183_x_at) / RFU CNN1 (11734310_a_at) / Fold change /veh CNN1 (11734310_a_at) / RFU VPS37D (11726825_at) / Fold change /veh VPS37D (11726825_at) / RFU C10orf10 (11716522_x_at) / Fold change /veh C10orf10 (11716522_x_at) / RFU KIR2DL2 /// KIR2DL4 /// KIR2DL5A /// KIR2DL5B /// KIR2DS1 /// KIR2DS2 /// KIR2DS3 /// KIR2DS4 /// KIR3DL3 /// KIR3DL3 /// KIR3DS1 (11738374_at) / Fold change /veh KIR2DL2 /// KIR2DL4 /// KIR2DL5A /// KIR2DL5B /// KIR2DS1 /// KIR2DS2 /// KIR2DS3 /// KIR2DS4 /// KIR3DL3 /// KIR3DL3 /// KIR3DS1 (11738374_at) / RFU C1QL1 (11718748_at) / Fold change /veh C1QL1 (11718748_at) / RFU TMPRSS4 (11747572_a_at) / Fold change /veh TMPRSS4 (11747572_a_at) / RFU HAMP (11756126_x_at) / Fold change /veh HAMP (11756126_x_at) / RFU RNFT2 (11725882_a_at) / Fold change /veh RNFT2 (11725882_a_at) / RFU NR4A2 (11747474_a_at) / Fold change /veh NR4A2 (11747474_a_at) / RFU ABCC12 (11746883_a_at) / Fold change /veh ABCC12 (11746883_a_at) / RFU TMEM136 (11760407_x_at) / Fold change /veh TMEM136 (11760407_x_at) / RFU CLDN22 /// WWC2 (11732394_at) / Fold change /veh CLDN22 /// WWC2 (11732394_at) / RFU HLA-DPB1 (11760878_x_at) / Fold change /veh HLA-DPB1 (11760878_x_at) / RFU SPINT1 (11716480_a_at) / Fold change /veh SPINT1 (11716480_a_at) / RFU GAP43 (11754022_s_at) / Fold change /veh GAP43 (11754022_s_at) / RFU A4GNT (11735810_at) / Fold change /veh A4GNT (11735810_at) / RFU PRB3 (11715151_x_at) / Fold change /veh PRB3 (11715151_x_at) / RFU TUBB4B (11761932_at) / Fold change /veh TUBB4B (11761932_at) / RFU CAPN14 (11732068_a_at) / Fold change /veh CAPN14 (11732068_a_at) / RFU TMCC2 (11721928_a_at) / Fold change /veh TMCC2 (11721928_a_at) / RFU IRGQ (11745062_a_at) / Fold change /veh IRGQ (11745062_a_at) / RFU FAM174B (11720279_a_at) / Fold change /veh FAM174B (11720279_a_at) / RFU TMPRSS4 (11748680_a_at) / Fold change /veh TMPRSS4 (11748680_a_at) / RFU FAM212B (11763350_a_at) / Fold change /veh FAM212B (11763350_a_at) / RFU PLEKHG5 (11743358_a_at) / Fold change /veh PLEKHG5 (11743358_a_at) / RFU ZSCAN30 (11745921_a_at) / Fold change /veh ZSCAN30 (11745921_a_at) / RFU CMKLR1 (11741424_a_at) / Fold change /veh CMKLR1 (11741424_a_at) / RFU LOC101060620 /// MAPK8IP1 (11723275_at) / Fold change /veh LOC101060620 /// MAPK8IP1 (11723275_at) / RFU SPTSSB (11747773_x_at) / Fold change /veh SPTSSB (11747773_x_at) / RFU PRSS12 (11739890_at) / Fold change /veh PRSS12 (11739890_at) / RFU BIN1 (11741810_x_at) / Fold change /veh BIN1 (11741810_x_at) / RFU WNT11 (11732464_a_at) / Fold change /veh WNT11 (11732464_a_at) / RFU C10orf10 (11716521_a_at) / Fold change /veh C10orf10 (11716521_a_at) / RFU C5orf56 (11738089_at) / Fold change /veh C5orf56 (11738089_at) / RFU CYB561 (11721691_x_at) / Fold change /veh CYB561 (11721691_x_at) / RFU ANKRD19P (11752326_a_at) / Fold change /veh ANKRD19P (11752326_a_at) / RFU OR2T12 /// OR2T33 /// OR2T8 (11738714_s_at) / Fold change /veh OR2T12 /// OR2T33 /// OR2T8 (11738714_s_at) / RFU VCAN (11748164_a_at) / Fold change /veh VCAN (11748164_a_at) / RFU JSRP1 (11732532_at) / Fold change /veh JSRP1 (11732532_at) / RFU KRTAP10-11 (11738290_x_at) / Fold change /veh KRTAP10-11 (11738290_x_at) / RFU MYO3A (11730013_a_at) / Fold change /veh MYO3A (11730013_a_at) / RFU EBF3 (11725865_a_at) / Fold change /veh EBF3 (11725865_a_at) / RFU CAMK2N1 (11719241_x_at) / Fold change /veh CAMK2N1 (11719241_x_at) / RFU C5orf56 (11738088_a_at) / Fold change /veh C5orf56 (11738088_a_at) / RFU OLFML3 (11715873_a_at) / Fold change /veh OLFML3 (11715873_a_at) / RFU LOC100653217 /// NTM (11731650_a_at) / Fold change /veh LOC100653217 /// NTM (11731650_a_at) / RFU MAPK11 (11762145_a_at) / Fold change /veh MAPK11 (11762145_a_at) / RFU FIZ1 (11724087_x_at) / Fold change /veh FIZ1 (11724087_x_at) / RFU OASL (11726364_x_at) / Fold change /veh OASL (11726364_x_at) / RFU SOX15 (11748057_x_at) / Fold change /veh SOX15 (11748057_x_at) / RFU CD79A (11719716_a_at) / Fold change /veh CD79A (11719716_a_at) / RFU HIST1H1D (11736915_at) / Fold change /veh HIST1H1D (11736915_at) / RFU CASKIN2 (11723855_a_at) / Fold change /veh CASKIN2 (11723855_a_at) / RFU LOC730098 (11760151_x_at) / Fold change /veh LOC730098 (11760151_x_at) / RFU OR4N2 (11742367_at) / Fold change /veh OR4N2 (11742367_at) / RFU PRRT2 (11749266_a_at) / Fold change /veh PRRT2 (11749266_a_at) / RFU SNX32 (11753110_a_at) / Fold change /veh SNX32 (11753110_a_at) / RFU CDHR5 (11726645_a_at) / Fold change /veh CDHR5 (11726645_a_at) / RFU RCAN1 (11760418_a_at) / Fold change /veh RCAN1 (11760418_a_at) / RFU FAM167A (11723789_a_at) / Fold change /veh FAM167A (11723789_a_at) / RFU FAM26E (11764081_at) / Fold change /veh FAM26E (11764081_at) / RFU ISYNA1 (11749810_s_at) / Fold change /veh ISYNA1 (11749810_s_at) / RFU ACY1 (11761880_at) / Fold change /veh ACY1 (11761880_at) / RFU 11764098_at / Fold change /veh 11764098_at / RFU SAMD14 (11745864_x_at) / Fold change /veh SAMD14 (11745864_x_at) / RFU NPB (11741838_a_at) / Fold change /veh NPB (11741838_a_at) / RFU TMPRSS6 (11731388_a_at) / Fold change /veh TMPRSS6 (11731388_a_at) / RFU KRTAP10-2 (11738614_at) / Fold change /veh KRTAP10-2 (11738614_at) / RFU ARHGAP8 /// PRR5-ARHGAP8 (11727945_x_at) / Fold change /veh ARHGAP8 /// PRR5-ARHGAP8 (11727945_x_at) / RFU KRTAP5-7 /// NADSYN1 (11734609_at) / Fold change /veh KRTAP5-7 /// NADSYN1 (11734609_at) / RFU RASL12 (11751679_a_at) / Fold change /veh RASL12 (11751679_a_at) / RFU CDKN2B (11736163_a_at) / Fold change /veh CDKN2B (11736163_a_at) / RFU PRF1 (11729649_at) / Fold change /veh PRF1 (11729649_at) / RFU, ZNF638 /// ZNF638-IT1 / Fold change vs veh, ZNF638 /// ZNF638-IT1 / RFU, PANK3 / Fold change vs veh, PANK3 / RFU, SH3YL1 / Fold change vs veh, SH3YL1 / RFU, ZEB2 / Fold change vs veh, ZEB2 / RFU, NRIP1 / Fold change vs veh, NRIP1 / RFU, PTTG1IP / Fold change vs veh, PTTG1IP / RFU, CAPN2 / Fold change vs veh, CAPN2 / RFU, MED14 / Fold change vs veh, MED14 / RFU, SNORA58 / Fold change vs veh, SNORA58 / RFU, C1orf63 / Fold change vs veh, C1orf63 / RFU, LRRFIP1 / Fold change vs veh, LRRFIP1 / RFU, NDUFAF7 / Fold change vs veh, NDUFAF7 / RFU, SLC12A2 / Fold change vs veh, SLC12A2 / RFU, IBTK / Fold change vs veh, IBTK / RFU, ESF1 / Fold change vs veh, ESF1 / Fold change vs veh, TMEM50B / RFU, TAOK1 / Fold change vs veh, TAOK1 / RFU, ACBD3 / Fold change vs veh, ACBD3 / RFU, TMA16 / Fold change vs veh, TMA16 / RFU, RWDD3 / Fold change vs veh, RWDD3 / RFU, BCAT1 / Fold change vs veh, BCAT1 / RFU, EDEM3 / Fold change vs veh, EDEM3 / RFU, TMEM33 / Fold change vs veh, TMEM33 / RFU, WDR75 / Fold change vs veh, WDR75 / RFU, AHCTF1 / Fold change vs veh, AHCTF1 / RFU, TFRC / Fold change vs veh, TFRC / RFU, ZDHHC17 / Fold change vs veh, ZDHHC17 / RFU, NOM1 / Fold change vs veh, NOM1 / RFU, ARL8B / Fold change vs veh, ARL8B / RFU, ZBTB11 / Fold change vs veh, ZBTB11 / RFU, TAMM41 / Fold change vs veh, TAMM41 / RFU, KIAA1704 /// LOC100996395 / Fold change vs veh, KIAA1704 /// LOC100996395 / RFU, ING1 / Fold change vs veh, ING1 / RFU, TRMT61B / Fold change vs veh, TRMT61B / RFU, FUBP3 / Fold change vs veh, FUBP3 / RFU, TP53 / Fold change vs veh, TP53 / RFU, TNKS2 / Fold change vs veh, TNKS2 / RFU, ZFP14 / Fold change vs veh, ZFP14 / RFU, ACTR2 / Fold change vs veh, ACTR2 / RFU, PPP3R1 / Fold change vs veh, PPP3R1 / RFU, PIK3R1 / Fold change vs veh, PIK3R1 / RFU, HNRNPA1 / Fold change vs veh, HNRNPA1 / RFU, RNF170 / Fold change vs veh, RNF170 / RFU, ZNF28 / Fold change vs veh, ZNF28 / RFU, RNGTT / Fold change vs veh, RNGTT / RFU, OGT / Fold change vs veh, OGT / RFU, BRD1 / Fold change vs veh, BRD1 / RFU, MARS / Fold change vs veh, MARS / RFU, ZNF655 / Fold change vs veh, ZNF655 / RFU, FAHD1 / Fold change vs veh, FAHD1 / RFU, BDP1 / Fold change vs veh, BDP1 / RFU, LRRCC1 / Fold change vs veh, LRRCC1 / RFU, ARID1A / Fold change vs veh, ARID1A / RFU, ZNF146 / Fold change vs veh, ZNF146 / RFU, ZNF330 / Fold change vs veh, ZNF330 / RFU, GPN3 / Fold change vs veh, GPN3 / RFU, C9orf123 / Fold change vs veh, C9orf123 / RFU, N4BP2L2 / Fold change vs veh, N4BP2L2 / RFU, ARFIP1 / Fold change vs veh, ARFIP1 / RFU, FAM179B / Fold change vs veh, FAM179B / RFU, BCL10 / Fold change vs veh, BCL10 / RFU, UHRF1BP1L / Fold change vs veh, UHRF1BP1L / RFU, BET1 / Fold change vs veh, BET1 / RFU, CNOT2 / Fold change vs veh, CNOT2 / RFU, ZNF268 / Fold change vs veh, ZNF268 / Fold change vs veh, ZNF507 / RFU, DGCR2 / Fold change vs veh, DGCR2 / RFU, WDSUB1 / Fold change vs veh, WDSUB1 / Fold change vs veh, HSP90B1 /// MIR3652 / RFU, ADSS / Fold change vs veh, ADSS / RFU, GK / Fold change vs veh, GK / RFU, ZNF148 / Fold change vs veh, ZNF148 / RFU, TAF9 / Fold change vs veh, TAF9 / RFU, SLC1A5 / Fold change vs veh, SLC1A5 / RFU, SLMO2 / Fold change vs veh, SLMO2 / RFU, ABCC4 / Fold change vs veh, ABCC4 / RFU, LOC101060439 /// RAP1B / Fold change vs veh, LOC101060439 /// RAP1B / RFU, RFX7 / Fold change vs veh, RFX7 / RFU, GTPBP10 / Fold change vs veh, GTPBP10 / RFU, CNEP1R1 / Fold change vs veh, CNEP1R1 / RFU, BIVM-ERCC5 /// ERCC5 / Fold change vs veh, BIVM-ERCC5 /// ERCC5 / RFU, ILF3 / Fold change vs veh, ILF3 / RFU 11762660_at / Fold change /veh 11762660_at / RFU VCAN (11757783_s_at) / Fold change /veh VCAN (11757783_s_at) / RFU DDX43 (11728927_at) / Fold change /veh DDX43 (11728927_at) / RFU KRT8 (11758188_x_at) / Fold change /veh KRT8 (11758188_x_at) / RFU NKD1 (11759106_at) / Fold change /veh NKD1 (11759106_at) / RFU SRD5A1 (11742802_a_at) / Fold change /veh SRD5A1 (11742802_a_at) / RFU TPSAB1 /// TPSB2 (11721975_s_at) / Fold change /veh TPSAB1 /// TPSB2 (11721975_s_at) / RFU GSTM3 (11746129_a_at) / Fold change /veh GSTM3 (11746129_a_at) / RFU IL23R (11737362_x_at) / Fold change /veh IL23R (11737362_x_at) / RFU TMEM51 (11727254_a_at) / Fold change /veh TMEM51 (11727254_a_at) / RFU PIWIL2 (11732686_x_at) / Fold change /veh PIWIL2 (11732686_x_at) / RFU ORM1 (11744905_x_at) / Fold change /veh ORM1 (11744905_x_at) / RFU CCDC152 (11743942_at) / Fold change /veh CCDC152 (11743942_at) / RFU ECM1 (11717891_a_at) / Fold change /veh ECM1 (11717891_a_at) / RFU IL23R (11748794_a_at) / Fold change /veh IL23R (11748794_a_at) / RFU TNFAIP8L3 (11732012_x_at) / Fold change /veh TNFAIP8L3 (11732012_x_at) / RFU MBOAT4 (11741988_at) / Fold change /veh MBOAT4 (11741988_at) / RFU 11764193_at / Fold change /veh 11764193_at / RFU TMEM53 (11763286_at) / Fold change /veh TMEM53 (11763286_at) / RFU MAGEB2 (11727129_at) / Fold change /veh MAGEB2 (11727129_at) / RFU TMEM200A (11744735_a_at) / Fold change /veh TMEM200A (11744735_a_at) / RFU CCDC152 (11751479_a_at) / Fold change /veh CCDC152 (11751479_a_at) / RFU FAM211A (11726209_a_at) / Fold change /veh FAM211A (11726209_a_at) / RFU RGS16 (11746705_a_at) / Fold change /veh RGS16 (11746705_a_at) / RFU VCAN (11755009_s_at) / Fold change /veh VCAN (11755009_s_at) / RFU RHOB (11743442_s_at) / Fold change /veh RHOB (11743442_s_at) / RFU RGS16 (11720943_a_at) / Fold change /veh RGS16 (11720943_a_at) / RFU RGS16 (11720944_at) / Fold change /veh RGS16 (11720944_at) / RFU, VPS4B / Fold change vs veh, VPS4B / RFU, CREB1 / Fold change vs veh, CREB1 / RFU, DNAJC13 / Fold change vs veh, DNAJC13 / RFU, GNAQ / Fold change vs veh, GNAQ / RFU, CDK5R1 / Fold change vs veh, CDK5R1 / RFU, ZRANB3 / Fold change vs veh, ZRANB3 / RFU, CUL4A / Fold change vs veh, CUL4A / RFU, CCNY / Fold change vs veh, CCNY / RFU, UFL1 / Fold change vs veh, UFL1 / RFU, COG3 / Fold change vs veh, COG3 / RFU, DIAPH2 / Fold change vs veh, DIAPH2 / RFU, SKA2 / Fold change vs veh, SKA2 / RFU, AFF3 / Fold change vs veh, AFF3 / RFU, LMF1 / Fold change vs veh, LMF1 / RFU, IPO11 / Fold change vs veh, IPO11 / RFU, DFFB / Fold change vs veh, DFFB / RFU, FOXP1 / Fold change vs veh, FOXP1 / RFU, CARD8 / Fold change vs veh, CARD8 / RFU, STRN3 / Fold change vs veh, STRN3 / RFU, ADK / Fold change vs veh, ADK / RFU, RASSF2 / Fold change vs veh, RASSF2 / RFU, WIPF1 / Fold change vs veh, WIPF1 / RFU, LARP1B / Fold change vs veh, LARP1B / RFU, RASA1 / Fold change vs veh, RASA1 / RFU, RB1 / Fold change vs veh, RB1 / RFU, PPFIA1 / Fold change vs veh, PPFIA1 / RFU, MAT2A / Fold change vs veh, MAT2A / RFU, CCT5 / Fold change vs veh, CCT5 / RFU, WDR92 / Fold change vs veh, WDR92 / RFU, CUX1 / Fold change vs veh, CUX1 / RFU, TTC7A / Fold change vs veh, TTC7A / RFU, TMEM135 / Fold change vs veh, TMEM135 / RFU, DEPTOR / Fold change vs veh, DEPTOR / RFU, CPM / Fold change vs veh, CPM / RFU, DNAJB6 / Fold change vs veh, DNAJB6 / RFU, CACNA2D3 / Fold change vs veh, CACNA2D3 / RFU, DTX4 / Fold change vs veh, DTX4 / RFU, TFCP2 / Fold change vs veh, TFCP2 / RFU, GMCL1 /// GMCL1P1 / Fold change vs veh, GMCL1 /// GMCL1P1 / RFU, AEBP2 / Fold change vs veh, AEBP2 / RFU, SNHG1 /// SNORD22 /// SNORD25 /// SNORD26 /// SNORD27 /// SNORD28 /// SNORD29 /// SNORD31 / Fold change vs veh, SNHG1 /// SNORD22 /// SNORD25 /// SNORD26 /// SNORD27 /// SNORD28 /// SNORD29 /// SNORD31 / Fold change (Aza/veh), C12orf56 (ProbeSet 11735607_a_at) / Fold change (ACY-1035/veh), C12orf56 (ProbeSet 11735607_a_at) / Fold change (Aza/veh), FGFR1OP (ProbeSet 11751329_s_at) / Fold change (ACY-1035/veh), FGFR1OP (ProbeSet 11751329_s_at) / Fold change (Aza/veh), VPS36 (ProbeSet 11739960_a_at) / Fold change (ACY-1035/veh), VPS36 (ProbeSet 11739960_a_at) / RFU SYPL1 (11715823_x_at) / Fold change /veh SYPL1 (11715823_x_at) / RFU IGFBP7 (11715501_s_at) / Fold change /veh IGFBP7 (11715501_s_at) / RFU REEP3 (11722064_at) / Fold change /veh REEP3 (11722064_at) / RFU IGLL1 (11728026_x_at) / Fold change /veh IGLL1 (11728026_x_at): dose or concentration left out as unconfirmed
Conditions: ProbeSet 11730252_s_at; LIST B

Nc1ncn([C@@H]2O[C@H](CO)[C@@H](O)[C@H]2O)c(=O)n1 [azacitidine]
RFU, AHCTF1: 220.95 RFU
